Assay results as given in ChEMBL document CHEMBL5465560, “Selectivity Literature for EUbOPEN Chemogenomic Library” (2024).

Experiments:
[1] = system: Fibroblast growth factor receptor 3 (Homo sapiens), P22607 [G697C]; assay: (§1) Selectivity interaction (KinomeScan (DiscoverX)) EUB0001049a FGFR3; details: at 1 µM
[2] = biological target: Fibroblast growth factor receptor 3 (Homo sapiens, UniProt P22607); assay: as §1; details: at 1 µM
[3] = biological target: T1, Phosphatidylinositol 4,5-bisphosphate 3-kinase catalytic subunit delta isoform (Homo sapiens) (UniProt O00329); assay: Selectivity interaction (KinomeScan (DiscoverX)) EUB0001049a PIK3CD; details: at 1 µM
T1 sequence (whole entry): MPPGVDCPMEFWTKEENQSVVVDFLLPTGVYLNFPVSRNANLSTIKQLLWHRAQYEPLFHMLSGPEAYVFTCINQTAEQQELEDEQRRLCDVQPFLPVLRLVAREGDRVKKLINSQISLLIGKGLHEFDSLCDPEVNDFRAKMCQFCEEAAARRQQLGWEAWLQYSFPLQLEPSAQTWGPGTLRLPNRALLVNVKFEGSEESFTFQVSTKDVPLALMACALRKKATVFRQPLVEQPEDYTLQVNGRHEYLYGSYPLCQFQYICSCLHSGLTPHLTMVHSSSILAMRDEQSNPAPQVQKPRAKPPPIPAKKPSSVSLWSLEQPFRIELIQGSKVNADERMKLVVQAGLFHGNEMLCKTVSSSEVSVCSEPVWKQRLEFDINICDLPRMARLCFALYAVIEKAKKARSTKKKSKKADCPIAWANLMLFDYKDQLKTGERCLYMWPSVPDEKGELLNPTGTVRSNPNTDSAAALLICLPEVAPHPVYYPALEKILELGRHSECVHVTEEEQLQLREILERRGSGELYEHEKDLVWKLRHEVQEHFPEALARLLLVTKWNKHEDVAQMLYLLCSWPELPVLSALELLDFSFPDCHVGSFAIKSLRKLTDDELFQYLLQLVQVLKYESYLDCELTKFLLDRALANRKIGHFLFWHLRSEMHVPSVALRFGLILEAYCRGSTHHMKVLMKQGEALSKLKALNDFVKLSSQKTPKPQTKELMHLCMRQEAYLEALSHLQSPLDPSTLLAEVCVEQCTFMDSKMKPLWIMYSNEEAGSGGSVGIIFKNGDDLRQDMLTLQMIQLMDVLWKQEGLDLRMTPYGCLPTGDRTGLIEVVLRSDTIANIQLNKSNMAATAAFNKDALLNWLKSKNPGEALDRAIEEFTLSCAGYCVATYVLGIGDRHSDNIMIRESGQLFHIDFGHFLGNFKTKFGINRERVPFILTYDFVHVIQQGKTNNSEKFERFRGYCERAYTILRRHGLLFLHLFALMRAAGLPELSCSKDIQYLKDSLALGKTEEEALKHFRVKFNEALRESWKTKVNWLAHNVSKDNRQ

[4] = biological target: Glycogen synthase kinase-3 beta (Homo sapiens, UniProt P49841); assay: Selectivity interaction (KinomeScan (DiscoverX)) EUB0001049a GSK3B; details: at 1 µM
[5] = biological target: SRSF protein kinase 3 (Homo sapiens) (UniProt Q9UPE1); assay: Selectivity interaction (KinomeScan (DiscoverX)) EUB0001079a SRPK3; details: at 1 µM
[6] = biological target: Death-associated protein kinase 1 (Homo sapiens, UniProt P53355); details: at 10 µM
[7] = biological target: Mast/stem cell growth factor receptor Kit (Homo sapiens, UniProt P10721); assay: Selectivity interaction (Kinase panel (Invitrogen)) EUB0000639a KIT; details: at 200 nM
[8] = biological target: Insulin receptor (Homo sapiens, UniProt P06213); assay: Selectivity interaction (Ambit KINOMEscan and KiNATiv profiling in Jurkat cells) EUB0000090b INSR; type: cell-based; details: at 1 µM
[9] = biological target: T2, NUAK family SNF1-like kinase 1 (Homo sapiens) (UniProt O60285); assay: Selectivity interaction (KinomeScan (DiscoverX)) EUB0001619a NUAK1; details: at 1 µM
T2 sequence (whole entry): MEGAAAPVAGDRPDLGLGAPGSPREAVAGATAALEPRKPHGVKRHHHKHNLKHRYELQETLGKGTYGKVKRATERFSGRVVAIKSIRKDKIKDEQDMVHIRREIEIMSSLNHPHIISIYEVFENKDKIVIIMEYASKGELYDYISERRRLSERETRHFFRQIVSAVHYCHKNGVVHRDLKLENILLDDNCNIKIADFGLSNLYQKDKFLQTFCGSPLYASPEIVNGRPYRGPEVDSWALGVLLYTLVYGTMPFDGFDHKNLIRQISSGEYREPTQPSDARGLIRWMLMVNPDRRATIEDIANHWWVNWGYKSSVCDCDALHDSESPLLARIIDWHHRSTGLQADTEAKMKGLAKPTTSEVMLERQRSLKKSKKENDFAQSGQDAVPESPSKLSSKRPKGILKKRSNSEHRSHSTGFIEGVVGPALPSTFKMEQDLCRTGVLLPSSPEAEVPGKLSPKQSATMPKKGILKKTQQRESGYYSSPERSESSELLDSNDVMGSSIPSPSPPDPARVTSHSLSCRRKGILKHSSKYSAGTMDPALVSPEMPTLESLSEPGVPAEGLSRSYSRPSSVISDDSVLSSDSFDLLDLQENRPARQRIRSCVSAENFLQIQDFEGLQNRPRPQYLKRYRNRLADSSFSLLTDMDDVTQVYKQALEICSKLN

[10] = biological target: Focal adhesion kinase 1 (Homo sapiens, UniProt Q05397); assay: Selectivity interaction (KinomeScan (DiscoverX)) EUB0001619a PTK2; details: at 1 µM

Chain of Glycogen synthase kinase-3 beta (P49841 whole entry, looked up): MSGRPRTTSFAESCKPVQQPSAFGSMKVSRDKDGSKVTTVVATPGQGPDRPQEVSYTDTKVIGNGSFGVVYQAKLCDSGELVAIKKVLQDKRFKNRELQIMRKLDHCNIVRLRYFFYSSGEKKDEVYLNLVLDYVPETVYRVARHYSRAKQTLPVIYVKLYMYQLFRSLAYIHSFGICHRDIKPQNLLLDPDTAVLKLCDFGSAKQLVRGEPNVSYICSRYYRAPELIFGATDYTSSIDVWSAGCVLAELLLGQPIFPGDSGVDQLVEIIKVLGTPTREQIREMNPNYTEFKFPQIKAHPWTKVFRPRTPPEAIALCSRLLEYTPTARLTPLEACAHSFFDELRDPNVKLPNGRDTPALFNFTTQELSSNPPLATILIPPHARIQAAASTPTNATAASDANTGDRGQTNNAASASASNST
Chain of Death-associated protein kinase 1 (P53355 whole entry, looked up): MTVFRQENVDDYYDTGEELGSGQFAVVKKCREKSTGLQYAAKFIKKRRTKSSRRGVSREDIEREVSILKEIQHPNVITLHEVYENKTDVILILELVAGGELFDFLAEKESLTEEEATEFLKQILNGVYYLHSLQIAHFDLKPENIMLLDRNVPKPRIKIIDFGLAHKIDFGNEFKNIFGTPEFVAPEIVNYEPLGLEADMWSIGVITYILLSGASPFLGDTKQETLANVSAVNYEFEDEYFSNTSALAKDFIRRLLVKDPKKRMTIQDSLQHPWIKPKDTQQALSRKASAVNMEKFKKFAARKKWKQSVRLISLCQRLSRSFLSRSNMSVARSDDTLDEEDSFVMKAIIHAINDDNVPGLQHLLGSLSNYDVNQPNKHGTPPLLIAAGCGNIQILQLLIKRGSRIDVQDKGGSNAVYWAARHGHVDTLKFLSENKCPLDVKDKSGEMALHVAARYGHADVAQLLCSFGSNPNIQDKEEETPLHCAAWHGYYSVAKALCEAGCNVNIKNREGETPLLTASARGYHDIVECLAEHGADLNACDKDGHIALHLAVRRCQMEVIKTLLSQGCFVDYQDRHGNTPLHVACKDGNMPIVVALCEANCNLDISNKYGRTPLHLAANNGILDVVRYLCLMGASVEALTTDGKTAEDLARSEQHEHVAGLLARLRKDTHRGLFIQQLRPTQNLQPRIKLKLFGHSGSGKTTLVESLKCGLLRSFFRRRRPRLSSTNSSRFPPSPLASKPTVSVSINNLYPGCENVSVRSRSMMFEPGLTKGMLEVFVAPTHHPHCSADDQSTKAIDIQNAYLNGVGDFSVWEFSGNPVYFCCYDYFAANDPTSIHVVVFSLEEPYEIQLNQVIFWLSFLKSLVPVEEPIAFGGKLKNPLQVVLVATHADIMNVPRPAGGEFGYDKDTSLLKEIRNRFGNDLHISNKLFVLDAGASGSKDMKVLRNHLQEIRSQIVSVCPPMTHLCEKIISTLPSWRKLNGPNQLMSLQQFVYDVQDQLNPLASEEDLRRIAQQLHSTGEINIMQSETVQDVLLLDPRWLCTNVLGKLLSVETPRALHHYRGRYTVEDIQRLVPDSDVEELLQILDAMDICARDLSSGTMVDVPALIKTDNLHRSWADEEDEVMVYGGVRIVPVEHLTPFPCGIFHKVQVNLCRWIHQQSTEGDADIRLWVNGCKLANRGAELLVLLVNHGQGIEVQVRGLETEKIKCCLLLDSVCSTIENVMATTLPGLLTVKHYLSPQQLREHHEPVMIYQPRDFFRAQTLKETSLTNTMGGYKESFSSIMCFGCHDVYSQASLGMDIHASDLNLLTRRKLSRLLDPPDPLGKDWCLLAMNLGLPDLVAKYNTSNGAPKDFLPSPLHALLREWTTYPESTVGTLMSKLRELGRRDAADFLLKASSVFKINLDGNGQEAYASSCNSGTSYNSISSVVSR
Chain of Mast/stem cell growth factor receptor Kit (P10721 whole entry): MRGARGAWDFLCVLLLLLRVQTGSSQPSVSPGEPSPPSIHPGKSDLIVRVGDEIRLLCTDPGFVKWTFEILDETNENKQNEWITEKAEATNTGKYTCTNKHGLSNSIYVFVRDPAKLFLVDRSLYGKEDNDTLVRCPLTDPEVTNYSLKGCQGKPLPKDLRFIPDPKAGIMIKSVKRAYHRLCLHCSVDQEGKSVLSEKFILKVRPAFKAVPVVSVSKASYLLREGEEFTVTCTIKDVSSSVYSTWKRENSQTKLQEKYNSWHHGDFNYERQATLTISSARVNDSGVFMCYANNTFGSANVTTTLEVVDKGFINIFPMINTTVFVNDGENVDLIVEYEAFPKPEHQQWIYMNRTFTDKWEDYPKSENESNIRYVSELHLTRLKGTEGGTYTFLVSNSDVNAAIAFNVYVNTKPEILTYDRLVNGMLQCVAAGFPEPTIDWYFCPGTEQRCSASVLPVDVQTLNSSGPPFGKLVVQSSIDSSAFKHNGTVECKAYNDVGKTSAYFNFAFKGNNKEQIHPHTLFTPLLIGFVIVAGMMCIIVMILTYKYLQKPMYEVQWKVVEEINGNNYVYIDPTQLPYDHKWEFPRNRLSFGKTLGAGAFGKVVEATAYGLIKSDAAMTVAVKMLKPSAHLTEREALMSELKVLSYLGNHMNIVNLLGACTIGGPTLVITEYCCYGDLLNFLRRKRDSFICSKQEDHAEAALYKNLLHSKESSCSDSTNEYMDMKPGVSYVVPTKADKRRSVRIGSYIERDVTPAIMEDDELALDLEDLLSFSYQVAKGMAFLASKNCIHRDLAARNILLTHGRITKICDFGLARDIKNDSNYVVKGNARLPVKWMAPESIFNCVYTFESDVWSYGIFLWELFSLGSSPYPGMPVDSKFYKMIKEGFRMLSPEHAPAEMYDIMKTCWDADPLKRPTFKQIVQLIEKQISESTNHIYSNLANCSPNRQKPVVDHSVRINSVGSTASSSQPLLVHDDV
Chain of SRSF protein kinase 3 (Homo sapiens) (Q9UPE1 whole entry): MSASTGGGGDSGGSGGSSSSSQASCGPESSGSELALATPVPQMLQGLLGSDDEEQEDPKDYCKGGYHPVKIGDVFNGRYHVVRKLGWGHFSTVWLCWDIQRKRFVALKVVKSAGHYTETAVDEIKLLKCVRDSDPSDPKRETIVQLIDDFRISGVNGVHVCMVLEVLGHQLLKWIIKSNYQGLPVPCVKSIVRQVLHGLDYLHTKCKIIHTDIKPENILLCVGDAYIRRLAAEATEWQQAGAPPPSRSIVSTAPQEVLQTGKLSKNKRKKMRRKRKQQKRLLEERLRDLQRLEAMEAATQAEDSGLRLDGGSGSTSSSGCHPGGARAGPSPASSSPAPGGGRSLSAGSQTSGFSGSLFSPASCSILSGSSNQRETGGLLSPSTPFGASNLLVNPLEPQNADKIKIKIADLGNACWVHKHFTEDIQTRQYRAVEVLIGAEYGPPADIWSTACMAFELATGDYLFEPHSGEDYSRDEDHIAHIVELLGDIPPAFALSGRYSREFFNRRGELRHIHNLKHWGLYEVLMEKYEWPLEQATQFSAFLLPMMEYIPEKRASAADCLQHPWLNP
Chain of Fibroblast growth factor receptor 3 (Homo sapiens), P22607 [G697C] (P22607 whole entry G697C): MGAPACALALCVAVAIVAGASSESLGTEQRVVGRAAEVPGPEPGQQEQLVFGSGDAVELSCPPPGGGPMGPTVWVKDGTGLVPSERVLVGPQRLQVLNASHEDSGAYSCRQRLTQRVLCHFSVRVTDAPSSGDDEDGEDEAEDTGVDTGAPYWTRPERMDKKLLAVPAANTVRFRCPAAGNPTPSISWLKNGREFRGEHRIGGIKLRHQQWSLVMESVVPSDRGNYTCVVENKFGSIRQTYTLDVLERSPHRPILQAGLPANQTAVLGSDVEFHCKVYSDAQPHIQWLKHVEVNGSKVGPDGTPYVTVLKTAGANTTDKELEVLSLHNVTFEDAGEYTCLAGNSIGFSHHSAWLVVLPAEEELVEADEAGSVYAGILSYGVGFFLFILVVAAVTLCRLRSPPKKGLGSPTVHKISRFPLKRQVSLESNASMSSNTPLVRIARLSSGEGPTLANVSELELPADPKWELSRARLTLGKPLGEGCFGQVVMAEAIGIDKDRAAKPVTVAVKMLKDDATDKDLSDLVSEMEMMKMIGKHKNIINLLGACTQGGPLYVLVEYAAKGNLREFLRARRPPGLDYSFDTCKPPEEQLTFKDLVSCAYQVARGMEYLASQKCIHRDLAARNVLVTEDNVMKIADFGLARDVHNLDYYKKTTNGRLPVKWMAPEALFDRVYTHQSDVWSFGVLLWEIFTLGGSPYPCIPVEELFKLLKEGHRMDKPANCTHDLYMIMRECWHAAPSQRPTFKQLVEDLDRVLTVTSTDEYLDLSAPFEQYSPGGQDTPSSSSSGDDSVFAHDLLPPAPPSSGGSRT
Chain of Fibroblast growth factor receptor 3 (P22607 23-806 limits assumed): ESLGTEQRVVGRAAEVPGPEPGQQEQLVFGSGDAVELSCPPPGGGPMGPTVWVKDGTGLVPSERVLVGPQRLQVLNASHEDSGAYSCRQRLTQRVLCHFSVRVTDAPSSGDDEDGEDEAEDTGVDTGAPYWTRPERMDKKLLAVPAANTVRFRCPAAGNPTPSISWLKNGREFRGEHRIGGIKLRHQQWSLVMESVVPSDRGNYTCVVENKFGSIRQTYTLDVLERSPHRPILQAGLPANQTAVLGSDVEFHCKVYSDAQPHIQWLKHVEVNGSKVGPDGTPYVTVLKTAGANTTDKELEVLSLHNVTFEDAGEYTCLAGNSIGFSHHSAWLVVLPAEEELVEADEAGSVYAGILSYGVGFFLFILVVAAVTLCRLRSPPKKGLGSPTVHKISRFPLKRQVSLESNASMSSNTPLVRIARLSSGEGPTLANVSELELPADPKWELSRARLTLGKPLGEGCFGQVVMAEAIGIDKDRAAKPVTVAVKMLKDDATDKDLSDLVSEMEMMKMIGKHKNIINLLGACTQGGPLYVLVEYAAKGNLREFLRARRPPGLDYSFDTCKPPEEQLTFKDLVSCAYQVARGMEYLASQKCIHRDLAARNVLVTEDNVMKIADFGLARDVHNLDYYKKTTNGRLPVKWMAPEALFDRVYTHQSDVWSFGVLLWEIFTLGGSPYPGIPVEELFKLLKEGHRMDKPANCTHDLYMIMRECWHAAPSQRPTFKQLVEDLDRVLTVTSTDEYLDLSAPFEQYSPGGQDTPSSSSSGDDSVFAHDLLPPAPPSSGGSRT

Which % of control [1] does the source give for `COc1cc(Nc2nc(C)cc(-c3cnn4nc(OC)ccc34)n2)cc(C(F)(F)F)c1` here?
The % of control was 96%.

And the % of control [2]?
The % of control was 96%.

And the % of control [3]?
Its % of control is 88%.

And the % of control [4]?
The % of control was 100%.

Which % of control [5] does the source give for `Nc1cnc(N2CCc3cc(S(=O)(=O)Nc4c(F)cc(Cl)cc4F)cc(N4CCCC4=O)c32)nc1` [TP-020n] here?
The % of control was 100%.

`CCN(CC)CCCCNc1ncc2cc(-c3cc(OC)cc(OC)c3)c(NC(=O)NC(C)(C)C)nc2n1` was tested. Which % of control [6] did it give?
Its % of control is 100%.

Which % of inhibition [7] does the source give for `CC[C@@H]1[C@H](F)C(=O)N[C@@H]1COc1nccc2cc(C(N)=O)c(OC)cc12` [ZIMLOVISERTIB] here?
The % of inhibition was 2.99%.

With `CN(C)C/C=C/C(=O)Nc1ccc(C(=O)N2CCCC(Nc3ncc(Cl)c(-c4c[nH]c5ccccc45)n3)C2)cc1` (stereo not given) as the molecule, how does the % of control [8] read?
Its % of control is 100%.

How did the % of control [9] turn out when `N#Cc1cccc(-c2c[nH]c3ncnc(N4CCOCC4)c23)c1` was run?
The % of control was 71%.

What about the % of control [10] of the same molecule?
Its % of control is 100%.
